In patent publication US6995018B1, “Complex formed by N-linked glycoproteins (SIBLINGS)and Factor H” (The United States of America as represented by the …, priority 1999, dated 2006):

Assays:
[1] = test system: Murine erythroleukemia (MEL) cells; experiment: Alternate complement mediated cell lysis assay, MEL cells with normal human serum; assay type: cell-based; conditions: for effect of pretreatment on protective effect of rOPN: pretreatment followed by rOPN 10 μg/mL; for protection of MEL cells from complement-mediated lysis (cell viability): 10 μg/mL protein 10 min, normal human serum 1:10, 2 h, trypan blue and MTT
Procedure: MEL cells were rinsed three times with GVB-MgEGTA buffer, resuspended in GVB-MgEGTA at a density of 5×10^6 cells/mL, and incubated at 37° C. with different concentrations of normal human serum. After 2 hrs, cells were harvested for trypan blue exclusion assay. The thiazolium blue assay was carried out at identical serum dilutions and cell viability was determined by absorbance at 560 nm. Each data point represents the average of three measurements. The error bars represent the standard deviation of the mean (A). MEL cells in GVB-MgEGTA buffer were incubated with 10 μg/mL of either rBSP or rOPN for 10 minutes at 37° C. Normal human serum was then added at a dilution of 1:10 and the cells were returned to 37° C., incubated for 2 hours and cell viability was determined by trypan blue and thiazolyl blue (MTT) reduction assays (B). Data from 3–7 separate experiments, with treatment replicates in triplicate, was combined to yield mean values. Error bars represent the standard error of the mean. N=number of experiments combined.
MEL cells prepared as in FIG. 8 were treated with normal rBSP (10 μg/mL), rBSP whose RGD sequence had been mutated to KAE ([…]), and either GRGDS (SEQ ID NO: 10) peptide (400 μM) followed by rBSP or an αVβ3 antibody (1:4000) followed by rBSP for 10 minutes prior to the addition of normal human serum. The cells were then incubated for […] after which cell viability determined using the MTT assay (A). A cohort of MEL cells were pretreated with rOPN (10 μg/mL) alone, GRGDS (SEQ ID NO: 10) peptide followed by rOPN, the αVβ3 antibody followed by rOPN, or an anti-CD44 antibody (Chemicon, Co.) followed by rOPN, or hyaluronan (HA) followed by rOPN (B). Cells were then treated with normal human serum and viability assayed as in FIG. 8. […] The data represents the mean and standard error of the mean for three separate experiments. Statistical significance was determined by analysis of variance. Percent cell viability was determined using A560 absorbance values of various conditions and a control where no serum had been added (100% viable). The cross-hatched region represents that range of values observed when normal human serum (1:10) alone was added (maximal cell death).
The first model system employed was a murine erythroleukemia (MEL) cell line which when incubated with normal human serum can be readily assayed for alternate complement pathway (ACP)-mediated cell lysis (Varnet et al., Curr. Opin. Cell Biol., 8(5):724–730, 1996). Cell survival was measured by both trypan blue dye exclusion and by thiazolyl blue (MTT) reduction by living mitochondria. Titration with dilutions of normal human serum and time courses were carried out to define optimal incubation conditions. At 1:10 dilution, human serum totally lysed the MEL cells as measured by both assay systems (FIG. 8A).
Murine erytliroleukemia (MEL) cells (a gift of Dr. Marilyn Farquhar, Univ. CA San Diego.) grown in DMEM containing 10% fetal bovine serum and 4 mM glutamine were rinsed three times with gelatin veronal buffer with Mg2^+ and EGTA (GVB-MgEGTA, Sigma, St. Louis, Mo.). Cells were resuspended in GVB-MgEGTA at a density of 5×10^6 cells/mL and incubated at 37° C. with different concentrations of normal human serum diluted in GVB-MgEGTA. After 2 h, cells were harvested for trypan blue exclusion assay by removing a 50 μL aliquot, incubating for 15 minutes in 0.4% trypan blue, and counting viable cells under an inverted microscope. The thiazolium blue assay was carried out at identical serum dilutions by incubating a 50 μL aliquot of the cell suspension in an equal volume of 1 mg/mL thiazolyl blue (MTT) for 45 min. Cell viability was determined spectrophotometrically by absorbance at 560 nm. Cells in GVB-MgEGTA buffer were pre-incubated with 10 μg of either rBSP, rDMP1, or rOPN in 1 mL for 10 minutes at 37° C. […]

[2] = biological target: T1, purified human complement Factor H (Homo sapiens, UniProt P08603); experiment: Steady state fluorescence titration of Factor H with SIBLINGS proteins; assay type: binding; conditions: fluorescence quenching at 347 nm, excitation 295 nm
T1 construct: purchased Quidel Corporation (San Diego, Calif.)
Source text: FIGS. 3A and 3B are graphs which show the result of a titration of Factor H with BSP.
The salient structural features of Factor H include 20 short consensus repeats (SCRs) that contain four cysteine residues forming two disulfide bonds per repeat. In addition, each SCR contains one conserved tryptophan residue per repeat and Factor H is known to interact with several sialic acid-containing proteins. Therefore, binding interactions between members of the SIBLINGS family of proteins and Factor H can be studied by steady state fluorescence.
Steady state fluorescence studies were accomplished by titrating purified human complement Factor H with rBSP, rOPN, and rDMP1 followed by excitation at 295 nm and monitoring emission between 300 and 450 nm. The emission profile of Factor H alone yields a peak at 347 nm. The addition of rBSP, rOPN, or rDMP1 in nm increments causes a relative fluorescent intensity quenching. Conversion of the fluorescent intensity titration into a binding curve by determining the fraction of binding sites occupied as the fractional change in fluorescence quenching at 347 nm yields a saturable binding curve. […] Given that normal serum concentration of Factor H is ^˜0.5 mg/mL it is probable that virtually all BSP, OPN, and DMP1 in serum will be complexed with Factor H.

[3] = test system: MCF-7 breast cancer cells; experiment: Alternate complement pathway cell lysis assay with guinea pig serum, MCF-7; assay type: cell-based, human; conditions: MCF-7, 10 μg/mL, guinea pig serum 1:5, trypan blue and MTT
Procedure: (§1) Human cancer cell lines, MCF-7 (A) and U-266 (B) cells were rinsed three time with GVB-MgEGTA buffer and subsequently treated exactly as in the MEL cell complement-mediated cell lysis assay described above except complement active guinea pig serum (GPS) was substituted for human serum. Three different dilutions of GPS were assayed. For cultures pretreated with 10 μg/mL BSP or OPN, the dilution of GPS used was 1:5. Cell viability was determined by both trypan blue exclusion (solid bar) and MTT (open bar) assay. The bars represent the mean values of triplicate samples and the error bars are the standard deviation values.
(§2) Murine erytliroleukemia (MEL) cells (a gift of Dr. Marilyn Farquhar, Univ. CA San Diego.) grown in DMEM containing 10% fetal bovine serum and 4 mM glutamine were rinsed three times with gelatin veronal buffer with Mg2^+ and EGTA (GVB-MgEGTA, Sigma, St. Louis, Mo.). Cells were resuspended in GVB-MgEGTA at a density of 5×10^6 cells/mL and incubated at 37° C. with different concentrations of normal human serum diluted in GVB-MgEGTA. […] Cell viability was determined spectrophotometrically by absorbance at 560 nm. […] Normal human serum collected for good complement activity was then added at a dilution of 1:10 and the cells returned to 37° C. for 2 hours and cell viability was determined by trypan blue-exclusion and MTT assays. […]

[4] = test system: U-266 myeloma cells; experiment: Alternate complement pathway cell lysis assay with guinea pig serum, U-266; assay type: cell-based, human; conditions: U-266, 10 μg/mL, guinea pig serum 1:5, trypan blue and MTT
Procedure: as §1, §2

T1 sequence (P08603 19-1231): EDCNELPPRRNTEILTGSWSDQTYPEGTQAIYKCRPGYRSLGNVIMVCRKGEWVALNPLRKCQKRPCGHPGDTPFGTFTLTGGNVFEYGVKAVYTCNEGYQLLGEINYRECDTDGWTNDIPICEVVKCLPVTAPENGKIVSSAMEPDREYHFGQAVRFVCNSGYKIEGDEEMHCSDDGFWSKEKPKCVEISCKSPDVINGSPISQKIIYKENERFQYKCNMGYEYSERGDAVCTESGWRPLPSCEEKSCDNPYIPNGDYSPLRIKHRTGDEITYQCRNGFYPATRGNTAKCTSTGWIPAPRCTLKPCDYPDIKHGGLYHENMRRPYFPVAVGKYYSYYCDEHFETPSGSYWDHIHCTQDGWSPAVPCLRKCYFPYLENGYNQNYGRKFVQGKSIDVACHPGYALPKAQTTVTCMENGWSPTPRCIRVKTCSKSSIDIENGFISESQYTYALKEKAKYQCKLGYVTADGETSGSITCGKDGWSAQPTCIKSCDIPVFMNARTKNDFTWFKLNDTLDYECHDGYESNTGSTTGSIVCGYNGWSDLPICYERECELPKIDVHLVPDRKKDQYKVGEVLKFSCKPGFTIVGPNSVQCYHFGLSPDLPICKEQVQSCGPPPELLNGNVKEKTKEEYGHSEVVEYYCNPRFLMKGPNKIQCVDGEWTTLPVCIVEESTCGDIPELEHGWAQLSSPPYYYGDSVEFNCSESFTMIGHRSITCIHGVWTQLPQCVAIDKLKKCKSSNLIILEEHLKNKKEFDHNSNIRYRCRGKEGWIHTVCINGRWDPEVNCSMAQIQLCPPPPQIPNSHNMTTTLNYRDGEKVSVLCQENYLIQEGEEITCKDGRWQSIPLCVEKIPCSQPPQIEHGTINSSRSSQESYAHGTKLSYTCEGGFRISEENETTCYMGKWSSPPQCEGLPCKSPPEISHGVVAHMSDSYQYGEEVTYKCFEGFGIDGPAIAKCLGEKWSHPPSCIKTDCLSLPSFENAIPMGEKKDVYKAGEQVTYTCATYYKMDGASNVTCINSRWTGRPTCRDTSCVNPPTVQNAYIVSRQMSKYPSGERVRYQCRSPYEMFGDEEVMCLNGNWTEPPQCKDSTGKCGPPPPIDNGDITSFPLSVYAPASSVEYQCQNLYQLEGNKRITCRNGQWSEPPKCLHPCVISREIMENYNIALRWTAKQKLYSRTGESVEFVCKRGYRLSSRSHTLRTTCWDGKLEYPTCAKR

GRGDS: synthetic peptide used to compete with SIBLINGS proteins for integrin type binding (Calbiochem-NovaBiochem) [reference compound]
effect of pretreatment on protective effect of rBSP ([1]; MEL cells, GRGDS 400 μM or αVβ3 antibody 1:4000 followed by rBSP 10 μg/mL, MTT): negated the protective effect
effect of pretreatment on protective effect of rOPN ([1]; MEL cells, MTT): reduced cell survival
effect of preincubation on DMP1 protection ([1]; cells preincubated before DMP1): diminished but did not abolish

OPN: osteopontin, SIBLINGS family member; recombinant from adenoviral construct
binding constant with Factor H [2]: in the nM range
dose relation of protection of MEL cells from alternate complement pathway-mediated lysis [1]: dose related responses
protection of MEL cells from complement-mediated lysis (cell viability) [1]: protect
protection of MEL cells from complement-mediated lysis (cell viability) ([1]; listed as recombinant OPN): conferred protection
survival and protection from complement-mediated cell lysis [3]: enhanced survival and protection
survival and protection from complement-mediated cell lysis [4]: enhanced survival and protection

hyaluronan [reference compound]
effect of pretreatment on protective effect of rOPN ([1]; MEL cells, MTT): reduced the protective effect

rBSP-Factor H: pre-formed complex of rBSP and Factor H
protection of MEL cells from complement-mediated lysis (cell viability) [1]: abolished the protection

rOPN-Factor H: pre-formed complex of rOPN and Factor H
protection of MEL cells from complement-mediated lysis (cell viability) [1]: abolished the protection
